Reference: BindingDB's records for doi:10.1111/j.1747-0285.2009.00852.x (University of Jordan, 2009)

Target: Reverse transcriptase (Human immunodeficiency virus 2, UniProt Q06347)
Test: In Vitro Enzyme Assay
Settings: pH 7.8; 37 °C
Protocol: The reverse transcriptase inhibitory activity of compound was evaluated by a non-radioactive colorimetric assay method. This procedure uses RT to synthesize DNA starting from the template/primer hybridpoly (A) x oligo (dT)15 and avoids the use of radio-labeled nucleotides.

Reverse transcriptase, sequence (Q06347 whole entry): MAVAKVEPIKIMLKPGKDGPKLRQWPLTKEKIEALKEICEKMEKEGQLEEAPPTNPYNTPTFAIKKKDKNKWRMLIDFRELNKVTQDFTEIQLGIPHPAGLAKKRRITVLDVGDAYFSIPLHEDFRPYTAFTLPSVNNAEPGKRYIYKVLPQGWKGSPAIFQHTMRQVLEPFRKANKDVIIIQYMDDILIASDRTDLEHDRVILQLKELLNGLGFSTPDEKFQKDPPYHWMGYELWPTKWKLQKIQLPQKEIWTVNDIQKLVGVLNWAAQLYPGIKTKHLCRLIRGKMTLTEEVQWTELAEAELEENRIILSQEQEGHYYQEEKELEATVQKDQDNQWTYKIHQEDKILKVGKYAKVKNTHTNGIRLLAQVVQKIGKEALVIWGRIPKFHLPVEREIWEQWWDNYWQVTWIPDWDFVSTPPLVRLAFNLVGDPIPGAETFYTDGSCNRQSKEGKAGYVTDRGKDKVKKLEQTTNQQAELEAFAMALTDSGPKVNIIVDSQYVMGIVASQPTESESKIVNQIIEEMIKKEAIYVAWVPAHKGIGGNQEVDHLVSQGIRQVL

Structure (SMILES) | IC50 [µM]
Cc1ccnc2c1NC(=O)c1cccnc1N2C1CC1 [BI-RG-587] | 4.2
CCCCCCc1nc2c([nH]1)c(=O)n(C)c(=O)n2C [NCI Code, 14129] | 18.9
CCCCN(CCCC)C(=O)c1ccc(Cl)cc1Cl [NCI Code, 6050] | 31.3

Continued by falling IC50, values first:

IC50 [µM] | Structure (SMILES)
335 | CCCC(=O)Oc1ccc(C(C)(C)C)cc1Br [NCI Code, 6927]
87.1 | Cc1ccc(S(=O)(=O)Oc2ccc(Cl)cc2Cl)cc1 [NCI Code, 4179]
